This note sets out measurements from ChEMBL document CHEMBL1132731, “Synthesis and antibacterial activities of novel C(3)-aminopyrimidinyl substituted cephalosporins including against respiratory tract pathogens” (2000).

Common to all, as to assay type: functional
Test [1] is described as follows: Minimal inhibitory concentration against Moraxella catarrhalis 25240.
Test [2] relates to Staphylococcus aureus. Briefly: Minimal inhibitory concentration against methicillin resistant Staphylococcus aureus 77.
Test [3] is described as follows: Minimal inhibitory concentration against Haemophilus influenza HIN003, beta lactamase producing resistant strain. The conditions noted are these: Haemophilus influenzae.
The next test has as its system Klebsiella pneumoniae. Briefly: Minimal inhibitory concentration against Klebsiella pneumonia 2011E.
The subject of test [4] is Staphylococcus aureus. The test can be described thus: Minimal inhibitory concentration against methicillin susceptible Staphylococcus aureus giorgio.
Another test concerns Streptococcus pneumoniae. Briefly: Minimal inhibitory concentration against Streptococcus pneumonia PN010, penicillin resistant.
A short description of test [5]: Minimal inhibitory concentration against Enterococcus faecalis 29212.
The nature of test [6]: Minimal inhibitory concentration against Proteus vulgaris 6059.
The subject of another test is Escherichia coli. The test can be described thus: Minimal inhibitory concentration against Escherichia coli 3190Y.

In brackets after ≈: the same amount, converted by molar mass. Where only a bound is given, the exact number is not on record here.

Consider `Nc1cc(SC2=C(C(=O)O)N3C(=O)C(NC(=O)/C(=N\O)c4nc(N)sc4Cl)C3SC2)nc(N)n1` (configuration not stated), for which the MIC was below 0.008 µg/mL in [1]; 2 µg/mL (≈ 3.68 µM) in the test on Staphylococcus aureus [2]; 0.5 µg/mL (≈ 0.919 µM) in test [3]; 2 µg/mL (≈ 3.68 µM) against Klebsiella pneumoniae; 0.25 µg/mL (≈ 0.46 µM) with Staphylococcus aureus [4]; 1 µg/mL (≈ 1.84 µM) against Streptococcus pneumoniae. Also, the MIC was determined as 2 µg/mL (≈ 3.68 µM) in test [5], 0.5 µg/mL (≈ 0.919 µM) in [6] and 0.25 µg/mL (≈ 0.46 µM) in the test with Escherichia coli.

Turning to `CCO/N=C(\C(=O)NC1C(=O)N2C(C(=O)O)=C(Sc3cc(N)nc(N)n3)CSC12)c1csc(N)n1` (configuration not stated), the MIC in test [1] was below 0.008 µg/mL; in the test with Staphylococcus aureus [2], 4 µg/mL (≈ 7.44 µM); in test [3], 0.063 µg/mL (≈ 0.117 µM); against Klebsiella pneumoniae it was 2 µg/mL (≈ 3.72 µM); against Staphylococcus aureus [4] it was 0.5 µg/mL (≈ 0.93 µM); in the test with Streptococcus pneumoniae, 0.5 µg/mL (≈ 0.93 µM). For the same compound, the figures for the MIC (in test [5]; in test [6]; in the test on Escherichia coli) were 64 µg/mL (≈ 119 µM), 0.063 µg/mL (≈ 0.117 µM) and 0.13 µg/mL (≈ 0.242 µM), respectively.

On to `CO/N=C(\C(=O)NC1C(=O)N2C(C(=O)O)=C(SCSc3cc(N)nc(N)n3)CSC12)c1csc(N)n1` (configuration not stated), for which the MIC in test [1] came to 0.5 µg/mL (≈ 0.878 µM); with Staphylococcus aureus [2], 4 µg/mL (≈ 7.02 µM); in [3] it was 1 µg/mL (≈ 1.76 µM); against Klebsiella pneumoniae, 0.5 µg/mL (≈ 0.878 µM); in the test on Staphylococcus aureus [4], 0.25 µg/mL (≈ 0.439 µM); in the test with Streptococcus pneumoniae, 0.13 µg/mL (≈ 0.228 µM). Further, the results for the MIC (in [5]; in test [6]; with Escherichia coli) were 64 µg/mL (≈ 112 µM), 0.016 µg/mL (≈ 0.0281 µM) and 0.063 µg/mL (≈ 0.111 µM), respectively.

Take `CO/N=C(\C(=O)NC1C(=O)N2C(C(=O)O)=C(Sc3cc(N)nc(N)n3)CSC12)c1csc(N)n1` (configuration not stated): the MIC in test [1] is below 0.008 µg/mL; against Staphylococcus aureus [2] it was 4 µg/mL (≈ 7.64 µM); in [3], 0.016 µg/mL (≈ 0.0306 µM); in the test with Klebsiella pneumoniae, 0.5 µg/mL (≈ 0.955 µM); with Staphylococcus aureus [4], 0.5 µg/mL (≈ 0.955 µM); in the test with Streptococcus pneumoniae, 0.5 µg/mL (≈ 0.955 µM). In addition, the MIC was above 64 µg/mL in test [5], 0.016 µg/mL (≈ 0.0306 µM) in test [6] and 0.031 µg/mL (≈ 0.0592 µM) against Escherichia coli.

With `Nc1cc(N)nc(SCSC2=C(C(=O)O)N3C(=O)C(NC(=O)/C(=N\O)c4nc(N)sc4Cl)C3SC2)n1` (configuration not stated), the MIC in [1] was found to be 0.13 µg/mL (≈ 0.22 µM); in the test with Staphylococcus aureus [2], 4 µg/mL (≈ 6.78 µM); in test [3] it was 0.016 µg/mL (≈ 0.0271 µM); in the test with Klebsiella pneumoniae, 8 µg/mL (≈ 13.6 µM); in the test on Staphylococcus aureus [4], 0.5 µg/mL (≈ 0.847 µM); against Streptococcus pneumoniae, 1 µg/mL (≈ 1.69 µM). The MIC stood at 4 µg/mL (≈ 6.78 µM) in test [5], 1 µg/mL (≈ 1.69 µM) in [6] and 1 µg/mL (≈ 1.69 µM) in the test with Escherichia coli.

Regarding `Nc1ccnc(SCSC2=C(C(=O)O)N3C(=O)C(NC(=O)/C(=N\O)c4nc(N)sc4Cl)C3SC2)n1` (configuration not stated), the MIC in [1] worked out at 0.5 µg/mL (≈ 0.869 µM); in the test with Staphylococcus aureus [2] it was 2 µg/mL (≈ 3.48 µM); in test [3], 0.25 µg/mL (≈ 0.435 µM); in the test on Klebsiella pneumoniae, 8 µg/mL (≈ 13.9 µM); with Staphylococcus aureus [4] it was 0.25 µg/mL (≈ 0.435 µM); in the test on Streptococcus pneumoniae, 1 µg/mL (≈ 1.74 µM). Further, the MIC in test [5] was determined as 2 µg/mL (≈ 3.48 µM); in test [6], 0.5 µg/mL (≈ 0.869 µM); in the test with Escherichia coli it was 1 µg/mL (≈ 1.74 µM).

In the case of `C#CCO/N=C(\C(=O)NC1C(=O)N2C(C(=O)O)=C(Sc3cc(N)nc(N)n3)CSC12)c1csc(N)n1` (configuration not stated), the MIC is 0.016 µg/mL (≈ 0.0292 µM) in test [1]; 4 µg/mL (≈ 7.3 µM) with Staphylococcus aureus [2]; 0.031 µg/mL (≈ 0.0566 µM) in [3]; 2 µg/mL (≈ 3.65 µM) in the test with Klebsiella pneumoniae; 0.5 µg/mL (≈ 0.913 µM) against Staphylococcus aureus [4]; 0.25 µg/mL (≈ 0.457 µM) with Streptococcus pneumoniae. The figures for the MIC (in test [5]; in test [6]; in the test on Escherichia coli) were 32 µg/mL (≈ 58.4 µM), 0.031 µg/mL (≈ 0.0566 µM) and 0.13 µg/mL (≈ 0.237 µM), respectively.

Consider `Nc1nc(O)cc(SC2=C(C(=O)O)N3C(=O)C(NC(=O)/C(=N\O)c4csc(N)n4)C3SC2)n1` (configuration not stated), for which the MIC is below 0.008 µg/mL in test [1]; 4 µg/mL (≈ 7.83 µM) against Staphylococcus aureus [2]; 1 µg/mL (≈ 1.96 µM) in test [3]; 8 µg/mL (≈ 15.7 µM) against Klebsiella pneumoniae; 0.5 µg/mL (≈ 0.979 µM) with Staphylococcus aureus [4]; 1 µg/mL (≈ 1.96 µM) with Streptococcus pneumoniae. The figures for the MIC (in test [5]; in [6]; against Escherichia coli) were 4 µg/mL (≈ 7.83 µM), 0.5 µg/mL (≈ 0.979 µM) and 0.5 µg/mL (≈ 0.979 µM), respectively.
